Experimental data as given in PubChem BioAssay (NCI).
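How tested: cells in 96-well plates exposed to compound for 48 hours at five concentrations. Here, GI50 denotes the concentration required for 50% inhibition of growth. TGI marks complete inhibition of growth.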

Legend:
Experiment in all cases: inhibition of tumour cell growth, NCI panel, 48 h
[1] = system: NCI-H23 lung
[2] = system: SK-MEL-28 melanoma
[3] = system: TK-10 renal
[4] = system: ACHN renal
[5] = system: SN12C renal
[6] = system: HOP-92 NSCLC
[7] = system: SW-620 colon
[8] = system: HT29 colon
[9] = system: DU-145 prostate
[10] = system: HS 578T breast

SMILES: COc1cc(/C=C/c2csnn2)cc(OC)c1OC
- TGI [1]: > 100 µM
- TGI [2]: > 100 µM
- TGI [3]: > 100 µM
- TGI [4]: > 100 µM
- TGI [5]: > 100 µM
- TGI [6]: > 100 µM
- TGI [7]: > 100 µM
- TGI [8]: > 100 µM

SMILES: Cc1ccccc1C(CCCO)C(=O)O (stereo unspecified)
- TGI [1]: > 100 µM
- TGI [2]: > 100 µM
- TGI [3]: > 100 µM
- TGI [4]: > 100 µM
- TGI [5]: > 100 µM
- TGI [6]: > 100 µM
- TGI [7]: > 100 µM
- TGI [8]: > 100 µM

SMILES: COc1ccc2nc(NC(=O)C(=O)CC(=O)c3ccc([N+](=O)[O-])cc3)sc2c1
- TGI [1]: > 100 µM
- TGI [2]: > 100 µM
- TGI [4]: > 100 µM
- TGI [5]: > 100 µM
- TGI [6]: > 100 µM
- TGI [7]: > 100 µM
- TGI [8]: > 100 µM

SMILES: COc1ccc(C(O)c2cc3c(N)c(C(=O)Nc4cccc5ccccc45)sc3nc2C)cc1 (stereo unspecified)
- GI50 [1]: 0.562 µM
- TGI [1]: > 100 µM
- TGI [3]: > 100 µM
- GI50 [4]: 0.55 µM
- TGI [4]: > 55.6 µM
- GI50 [5]: 0.629 µM
- TGI [5]: > 46.8 µM
- GI50 [6]: 0.911 µM
- TGI [6]: > 27.5 µM
- GI50 [7]: 0.284 µM
- TGI [7]: > 100 µM
- GI50 [9]: 0.348 µM
- TGI [9]: 3.12 µM
- GI50 [10]: 0.319 µM
- TGI [10]: > 100 µM
- GI50 [8]: 0.35 µM

SMILES: O=NN(CCCl)C(=O)NC1CCC(CC(=O)O)CC1 (stereo unspecified)
- TGI [1]: > 100 µM
- TGI [2]: > 100 µM
- TGI [3]: > 100 µM
- TGI [4]: > 100 µM
- TGI [5]: > 100 µM
- TGI [6]: > 100 µM
- TGI [7]: > 100 µM
- TGI [8]: > 100 µM

SMILES: Nc1nc(=S)c2ncn(C3OC(COP(=O)(O)O)C(O)C3O)c2[nH]1 (stereo unspecified)
- GI50 [1]: 1.93 µM
- TGI [1]: > 100 µM
- GI50 [2]: 6.57 µM
- TGI [2]: > 100 µM
- GI50 [3]: 1.89 µM
- TGI [3]: > 100 µM
- GI50 [4]: 1.99 µM
- TGI [4]: > 100 µM
- GI50 [5]: 3.66 µM
- TGI [5]: > 100 µM
- GI50 [7]: 3.59 µM
- TGI [7]: > 100 µM
- GI50 [9]: 0.577 µM
- TGI [9]: > 100 µM
- GI50 [10]: 6.36 µM
- TGI [10]: > 100 µM
- GI50 [8]: 1.2 µM
- TGI [8]: > 100 µM

SMILES: NC1=NC(Cn2nc(-c3ccccc3)c3ccccc3c2=O)=NNC(=O)N1
- TGI [1]: > 100 µM
- TGI [2]: > 100 µM
- TGI [3]: > 100 µM
- TGI [4]: > 100 µM
- TGI [5]: > 100 µM
- TGI [6]: > 100 µM
- TGI [7]: > 100 µM
- TGI [8]: > 100 µM

SMILES: O=[N+]([O-])c1ccc(-c2ccc(C3=Nn4c(CNc5ccccc5Cl)nnc4SC3)o2)cc1
- TGI [1]: > 100 µM
- TGI [2]: > 100 µM
- TGI [3]: > 100 µM
- TGI [4]: > 100 µM
- TGI [5]: > 100 µM
- TGI [6]: > 100 µM
- TGI [7]: > 100 µM
- TGI [8]: > 100 µM

SMILES: Cc1ccc(S(=O)(=O)NCCCCC(N)C(=O)O)cc1 (stereo unspecified)
- TGI [1]: > 100 µM
- TGI [2]: > 100 µM
- TGI [4]: > 100 µM
- TGI [5]: > 100 µM
- TGI [6]: > 100 µM
- TGI [7]: > 100 µM
- TGI [9]: > 100 µM
- TGI [10]: > 100 µM
- TGI [8]: > 100 µM

SMILES: CCOC(=O)/C(=C/c1ccccn1)C(=O)c1ccccc1
- TGI [1]: 30.5 µM
- TGI [2]: 27.3 µM
- TGI [3]: 32.3 µM
- TGI [4]: > 56.2 µM
- TGI [5]: 27.2 µM
- TGI [6]: 21.1 µM
- TGI [7]: 32.6 µM
- TGI [8]: 30.4 µM

SMILES: O=C1CC(c2ccc(Cl)cc2)=Nc2ccccc2N1
- TGI [1]: > 100 µM
- TGI [2]: > 100 µM
- TGI [3]: > 100 µM
- TGI [4]: > 100 µM
- TGI [5]: > 100 µM
- TGI [6]: 71.1 µM
- TGI [7]: 47.9 µM
- TGI [8]: > 100 µM
